Results as given in US20090318527A1, “INDOLE COMPOUNDS AND METHODS OF USE THEREOF” (priority 2008, published 2009).

How the values were obtained:
5-HT2C [1] = molecular target: T1, 5-HT2C (Homo sapiens, UniProt P28335); conditions: cited from earlier work
T1 sequence (P28335 33-458): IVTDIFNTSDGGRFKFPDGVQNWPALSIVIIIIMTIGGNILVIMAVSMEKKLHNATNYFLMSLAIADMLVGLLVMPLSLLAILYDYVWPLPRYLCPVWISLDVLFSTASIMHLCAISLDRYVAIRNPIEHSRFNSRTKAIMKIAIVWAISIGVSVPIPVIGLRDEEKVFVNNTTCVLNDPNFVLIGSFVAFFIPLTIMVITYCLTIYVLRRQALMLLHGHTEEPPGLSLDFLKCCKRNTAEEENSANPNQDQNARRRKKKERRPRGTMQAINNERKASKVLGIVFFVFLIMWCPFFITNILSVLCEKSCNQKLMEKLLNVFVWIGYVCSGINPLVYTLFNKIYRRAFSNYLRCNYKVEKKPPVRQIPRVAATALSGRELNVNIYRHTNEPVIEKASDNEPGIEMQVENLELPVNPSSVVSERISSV

mice [2] = test: Serotonin-induced scratching in mice (animal model for OCD); type: in vivo, male Swiss-Webster mice
Protocol: The subjects were male Swiss-Webster mice, 4-6 weeks old, weighing 25-45 g. Mice were housed 5 per cage, given free access to standard mouse food and water except during experiments, and maintained in a temperature-controlled room (70° F.). Serotonin and all test drugs were made up with ascorbic acid to protect against oxidation. Two mice, one a control, the other experimental, were tested each time. Each mouse was separately placed into a plexiglas box.
Mice were injected subcutaneously between the shoulder blades with 0.1 ml of serotonin, 0.4 mg per ml in 0.15 M saline plus ascorbic acid, 1 mg/ml. […] The cumulative number of scratches with a hind leg was recorded at 5 minute intervals for 30 minutes. One saline injected control and one test animal were tested together in each assay.

human 5-HT2A receptor = molecular target: T2, human 5-HT2A receptor (Homo sapiens, UniProt P28223); test: Intracellular calcium flux assay, HEK 293 cells stably expressing 5-HT2A; type: cell-based; conditions: for Emax at 10 µM: HEK293, read-out: 5-HT2A functional activity (N/A class); for Emax at 10 µM / 5-HT2A response as percentage of the maximal 5-HT response @ 10,000: at 10,000 nM; for 5-HT2A response as percentage of the maximal 5-HT response @ 10,000: EC50 not reached; for EC50: calcium flux, at least three independent experiments, each in triplicate, read-out: 5-HT2A mean EC50 ± SD;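 for all read-outs here: fluorescent calcium dye read on FLIPR Tetra, peak signal above baseline within 60 s after compound addition, seven concentrations spanning 10 pM to 10 µM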
T2 construct: expressed in transfected cells; host or cells: HEK 293

human 5-HT2B receptor = molecular target: T3, human 5-HT2B receptor (Homo sapiens, UniProt P41595); test: Intracellular calcium flux assay, HEK 293 cells stably expressing 5-HT2B; type: cell-based; conditions: for Emax at 10 µM: HEK293, at 10,000 nM, read-out: 5-HT2B functional activity (N/A class); for Emax: HEK293, read-out: 5-HT2B efficacy as percentage of the maximal 5-HT response ± SD; for Emax / EC50: calcium flux, at least three independent experiments; for EC50: each in triplicate, read-out: 5-HT2B mean EC50 ± SD;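 for all read-outs here: calcium dye fluorescence read on a FLIPR Tetra, peak signal above baseline within 60 s after compound addition, seven-point concentration series from 10 pM up to 10 µM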
T3 construct: expressed in transfected cells; host or cells: HEK 293

5-HT2C [3] = molecular target: T1, 5-HT2C; test: Intracellular calcium flux assay, HEK 293 cells stably expressing 5-HT2C; type: cell-based; design: expressed in transfected cells; host or cells: HEK 293; conditions: for Emax: HEK293, read-out: 5-HT2C efficacy as percentage of the maximal 5-HT response ± SD, at least three independent experiments, entries marked a (42, 50, 51, 52) single measurements; for EC50: at least three independent experiments, entries marked a (42, 50, 51, 52) single measurements, read-out: 5-HT2C mean EC50 ± SD;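 for all read-outs here: calcium dye fluorescence read on FLIPR Tetra as peak signal above baseline within 60 s of compound addition, seven concentrations from 10 pM to 10 µM, each in triplicate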
mice [4] = test: Appetite suppression studies in food-deprived mice; type: in vivo; conditions: mice food-deprived 18 hours, i.p.; for % Reduction from control (food consumption): p <0.05 versus saline control
Protocol: Mice were deprived of food, but not water, for 18 hours. They were then injected i.p. with test compounds dissolved in 0.9% NaCl containing 1 mg per ml ascorbic acid for protection against oxidation. Each mouse was placed in an individual cage for 30 minutes and then presented with a small petri dish containing a gel made from gelatin, powdered milk and sucrose. The dish was weighed at zero time and at 15-minute intervals for the next hour in order to quantitate food consumption. Controls were injected with saline-ascorbic acid; ±fenfluramine was used as an active control.

[5] = i.p. 5 minutes before serotonin s.c., 10 mg/kg
[6] = i.p., 10 mg/kg, p <0.05 versus saline control
[7] = i.p. 5 minutes before serotonin s.c., 3 mg/kg
[8] = i.p., 3 mg/kg, p <0.05 versus saline control (*p = 0.09)

T3 sequence (P41595 whole entry): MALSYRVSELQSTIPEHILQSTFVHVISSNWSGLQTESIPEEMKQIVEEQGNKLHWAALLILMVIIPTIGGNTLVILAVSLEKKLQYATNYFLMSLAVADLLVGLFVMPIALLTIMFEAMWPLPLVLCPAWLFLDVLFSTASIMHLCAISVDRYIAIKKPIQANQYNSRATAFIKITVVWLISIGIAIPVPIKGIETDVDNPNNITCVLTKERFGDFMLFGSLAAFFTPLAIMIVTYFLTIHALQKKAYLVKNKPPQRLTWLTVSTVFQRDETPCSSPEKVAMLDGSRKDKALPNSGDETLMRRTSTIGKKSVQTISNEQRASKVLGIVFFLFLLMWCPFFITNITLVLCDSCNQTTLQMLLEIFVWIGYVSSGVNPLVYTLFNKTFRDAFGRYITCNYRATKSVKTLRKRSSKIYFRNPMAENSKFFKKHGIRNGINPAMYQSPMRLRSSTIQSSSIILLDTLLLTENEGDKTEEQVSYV
T2 sequence (P28223 whole entry): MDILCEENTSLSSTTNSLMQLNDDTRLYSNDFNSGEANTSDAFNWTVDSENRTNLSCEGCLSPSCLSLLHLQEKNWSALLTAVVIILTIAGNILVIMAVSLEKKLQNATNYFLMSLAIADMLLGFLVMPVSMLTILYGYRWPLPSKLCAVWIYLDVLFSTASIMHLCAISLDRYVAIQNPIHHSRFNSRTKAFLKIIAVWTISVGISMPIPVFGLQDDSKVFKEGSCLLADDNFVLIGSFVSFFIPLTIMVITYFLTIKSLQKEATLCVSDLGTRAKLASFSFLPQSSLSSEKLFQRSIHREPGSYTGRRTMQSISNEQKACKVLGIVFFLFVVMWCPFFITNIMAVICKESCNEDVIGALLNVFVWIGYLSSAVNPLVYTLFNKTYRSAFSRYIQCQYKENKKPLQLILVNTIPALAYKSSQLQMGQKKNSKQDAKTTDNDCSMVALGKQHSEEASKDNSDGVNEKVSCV

Question: Which “times more active at 5-HT2C as compared to 5-HT2A” value (5-HT2C [1]; 5-HT2C versus 5-HT2A) does the source give for `C[C@H](N)Cn1ccc2cc(F)c(Cl)cc21` [Ro 60-0175] here?
Answer: 25 times

Question: And the “selectivity over 5-HT2B receptors” value (5-HT2C [1]; 5-HT2C versus 5-HT2B)?
Answer: not selective

Question: What does the source list for `CNCCC(Oc1ccc(C(F)(F)F)cc1)c1ccccc1` (stereo not drawn) [Fluoxetine, reference compound]?
Answer: Average Number of Scratches 30 min. after injection (±SEM) (mice [2]; [5]): 154.8 ± 105.2; % Reduction from control (scratches) (mice [2]; [6]): 63.5%

Question: Which results are given for `COc1c(F)ccc2c1c(CCN(C)C)cn2C.Cl` [Compound 40, 2-(5-Fluoro-4-methoxy-1-methyl-1H-indol-3-yl)-N,N-dimethylethanamine hydrochloride]?
Answer: Emax at 10 µM (human 5-HT2A receptor): < 10%; Emax at 10 µM (human 5-HT2B receptor): < 10%; Average Number of Scratches 30 min. after injection (±SEM) (mice [2]; [7]): 8.2 ± 5.1; % Reduction from control (scratches) (mice [2]; [8]): 97* %; melting point: 183.6 to 186.8 °C; Emax (5-HT2C [3]): 72%; EC50 (5-HT2C [3]): 3.1 ± 1.2 nM

Question: For `COc1ccc(F)c2c1c(CCN(C)C)cn2C` [Compound 22, 2-(7-Fluoro-4-methoxy-1-methyl-1H-indol-3-yl)-N,N-dimethylethanamine], which “5-HT2A response as percentage of the maximal 5-HT response @ 10,000” value (“5-HT2A response as percentage” for short) (human 5-HT2A receptor) is on record?
Answer: (21 ± 6 @ 10,000) %

Question: And the EC50 (human 5-HT2A receptor)?
Answer: > 10000 nM

Question: And the Emax at 10 µM (human 5-HT2B receptor)?
Answer: < 10%

Question: And the “Mean food consumption 60 min. after injection: g (±SEM) Compound” value (mice [4]; 10 mg/kg)?
Answer: 0.15 (0.1) g

Question: What about the “% Reduction from control (food consumption)” value (mice [4]; 10 mg/kg) of the same compound?
Answer: 77%

Question: And the “Average Number of Scratches 30 min. after injection (±SEM)” value (“Average Number … (±SEM)” below) (mice [2]; [5])?
Answer: 4.7 ± 4.7

Question: What about the “% Reduction from control (scratches)” value (mice [2]; [6]) of the same compound?
Answer: 98.5%

Question: And the “Average Number … (±SEM)” value (mice [2]; oral gavage, 20 mg/kg)?
Answer: 102 ± 50.8

Question: And the “% Reduction from control (scratches)” value (mice [2]; oral gavage, 20 mg/kg, p < 0.05)?
Answer: 83%

Question: And the Emax (5-HT2C [3])?
Answer: 82%

Question: What about the EC50 (5-HT2C [3]) of the same compound?
Answer: 9.4 ± 4.9 nM

Question: With `CCNC(C)Cc1cccc(C(F)(F)F)c1` (racemic) [(±)-Fenfluramine, reference compound] as the compound, how does the “Mean food consumption 60 min. after injection: g (±SEM) Compound” value (mice [4]; 5 mg/kg) read?
Answer: 0.90 (.04) g

Question: And the “% Reduction from control (food consumption)” value (mice [4]; 5 mg/kg)?
Answer: 39%

Question: And the “Mean food consumption 60 min. after injection: g (±SEM) Compound” value (mice [4]; 10 mg/kg)?
Answer: 0.41 (.11) g

Question: What about the “% Reduction from control (food consumption)” value (mice [4]; 10 mg/kg) of the same compound?
Answer: 69%

Question: And the “Average Number … (±SEM)” value (mice [2]; [7])?
Answer: 22.8 ± 11.7

Question: And the “% Reduction from control (scratches)” value (mice [2]; [8])?
Answer: 95%

Question: What about the “Average Number … (±SEM)” value (mice [2]; oral gavage, 10 mg/kg) of the same compound?
Answer: 35 ± 25.8

Question: What about the “% Reduction from control (scratches)” value (mice [2]; oral gavage, 10 mg/kg, p < 0.05) of the same compound?
Answer: 94%

Question: For `CCn1cc(CCN(C)C)c2c(OC)cc(F)cc21.Cl` [Compound 34, 2-(1-Ethyl-6-fluoro-4-methoxy-1H-indol-3-yl)-N,N-dimethylethanamine hydrochloride], which Emax at 10 µM (human 5-HT2A receptor) is on record?
Answer: < 10%

Question: And the Emax (human 5-HT2B receptor)?
Answer: 21%

Question: What about the EC50 (human 5-HT2B receptor) of the same compound?
Answer: 397 ± 133 nM

Question: And the melting point?
Answer: 233.4 to 234.9 °C

Question: And the Emax (5-HT2C [3])?
Answer: 82%

Question: What about the EC50 (5-HT2C [3]) of the same compound?
Answer: 24 ± 8.38 nM

Question: For `CCCOc1ccc(F)c2c1c(CCN(C)C)cn2CC` [Compound 25, 2-(1-Ethyl-7-fluoro-4-propoxy-1H-indol-3-yl)-N,N-dimethylethanamine], which Emax at 10 µM (human 5-HT2A receptor) is on record?
Answer: < 10%

Question: What about the Emax (human 5-HT2B receptor) of the same compound?
Answer: 31%

Question: What about the EC50 (human 5-HT2B receptor) of the same compound?
Answer: 1450 nM

Question: And the melting point?
Answer: 49 to 50 °C

Question: And the Emax (5-HT2C [3])?
Answer: 75%

Question: And the EC50 (5-HT2C [3])?
Answer: 168 ± 27.2 nM

Question: Which results are given for `CCCn1cc(CCN(C)C)c2c(OCC)c(F)ccc21.Cl` [Compound 61, 2-(4-Ethoxy-5-fluoro-1-propyl-1H-indol-3-yl)-N,N-dimethylethanamine hydrochloride]?
Answer: Emax at 10 µM (human 5-HT2A receptor): < 10%; Emax at 10 µM (human 5-HT2B receptor): < 10%; melting point: 141 to 143 °C; Emax (5-HT2C [3]): 38%; EC50 (5-HT2C [3]): 13 ± 1.51 nM

Question: For `CCOc1cc(F)cc2c1c(CCN(C)C)cn2CC` [Compound 35, 2-(4-Ethoxy-1-ethyl-6-fluoro-1H-indol-3-yl)-N,N-dimethylethanamine], which “5-HT2A response as percentage” value (human 5-HT2A receptor) is on record?
Answer: (14 ± 4.8 @ 10,000) %

Question: And the EC50 (human 5-HT2A receptor)?
Answer: > 10000 nM

Question: And the Emax (human 5-HT2B receptor)?
Answer: 47%

Question: And the EC50 (human 5-HT2B receptor)?
Answer: 777 ± 383 nM

Question: And the melting point?
Answer: 77.1 to 78.2 °C

Question: And the Emax (5-HT2C [3])?
Answer: 88%

Question: And the EC50 (5-HT2C [3])?
Answer: 246 ± 185 nM

Question: What does the source list for `CN(C)CCc1cn(C)c2cc(F)cc(OCc3ccccc3)c12` [Compound 51, 4-Benzyloxy-3-(2-dimethylaminoethyl)-6-fluoro-1-methyl-1H-indole]?
Answer: Emax at 10 µM (human 5-HT2A receptor): < 10%; Emax at 10 µM (human 5-HT2B receptor): < 10%; melting point: 79 to 80 °C; Emax (5-HT2C [3]): 99%; EC50 (5-HT2C [3]): 233 nM

Question: Which “5-HT2A response as percentage” value (human 5-HT2A receptor) does the source give for `COc1cc(F)cc2c1c(CCN(C)C)cn2C.Cl` [Compound 31, 2-(6-Fluoro-4-methoxy-1-methyl-1H-indol-3-yl)-N,N-dimethylethanamine hydrochloride] here?
Answer: (21 ± 7.9 @ 10,000) %

Question: And the EC50 (human 5-HT2A receptor)?
Answer: > 10000 nM

Question: What about the Emax (human 5-HT2B receptor) of the same compound?
Answer: 51%

Question: And the EC50 (human 5-HT2B receptor)?
Answer: 55 ± 7.77 nM

Question: What about the melting point of the same compound?
Answer: 260.6 to 261.3 °C

Question: What about the Emax (5-HT2C [3]) of the same compound?
Answer: 87%

Question: And the EC50 (5-HT2C [3])?
Answer: 9.9 ± 3.27 nM

Question: Which results are given for `CCCOc1cc(F)cc2c1c(CCN(C)C)cn2C.Cl` [Compound 33, 2-(6-Fluoro-1-methyl-4-propoxy-1H-indol-3-yl)-N,N-dimethylethanamine hydrochloride]?
Answer: Emax at 10 µM (human 5-HT2A receptor): < 10%; Emax (human 5-HT2B receptor): 78%; EC50 (human 5-HT2B receptor): 182 ± 102 nM; melting point: 195.4 to 196.8 °C; Emax (5-HT2C [3]): 91%; EC50 (5-HT2C [3]): 384 ± 193 nM
